Laboratory results as given in patent US20030032580A1, “Use of agonists or antagonists of the 5-HT7 receptor to treat disorders of the bladder” (Synaptic Pharmaceutical Corporation, priority 1999, published 2003).
“And” between values parts separate entries of the source, which are not always exact repeats. Identical values can stand only once. Like-named read-outs stand apart in the source and are kept apart here.

Key:
[1] = molecular target: T1, 5-HT7 receptor (first phase of the concentration-effect curve to 5-CT in the rat bladder) (Rattus norvegicus, UniProt P32305); assay: Electrically stimulated rat bladder strips: first (high potency) phase of the concentration-effect curve to 5-CT; assay type: cell-based
T1 construct: from tissue; host or cells: rat urinary bladder detrusor strips
T1 sequence (P32305 whole entry): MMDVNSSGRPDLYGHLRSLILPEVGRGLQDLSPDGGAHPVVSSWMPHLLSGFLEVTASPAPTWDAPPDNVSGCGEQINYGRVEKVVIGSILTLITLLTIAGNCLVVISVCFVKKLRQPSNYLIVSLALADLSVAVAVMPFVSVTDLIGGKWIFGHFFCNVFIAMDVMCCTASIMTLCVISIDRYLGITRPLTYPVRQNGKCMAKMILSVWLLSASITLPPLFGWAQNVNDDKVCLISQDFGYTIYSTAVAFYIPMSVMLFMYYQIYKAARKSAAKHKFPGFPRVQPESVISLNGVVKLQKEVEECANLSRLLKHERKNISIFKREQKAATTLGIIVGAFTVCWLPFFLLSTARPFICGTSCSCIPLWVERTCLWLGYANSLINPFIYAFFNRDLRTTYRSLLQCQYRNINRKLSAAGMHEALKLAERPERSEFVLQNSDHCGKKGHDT

[2] = molecular target: T2, 5-HT2B receptor (second phase of the concentration-effect curve to 5-CT in the rat bladder) (Rattus norvegicus, UniProt P30994); assay: Electrically stimulated rat bladder strips: second (low potency) phase of the concentration-effect curve to 5-CT; assay type: cell-based
T2 construct: from tissue; host or cells: rat urinary bladder detrusor strips
T2 sequence (P30994 whole entry): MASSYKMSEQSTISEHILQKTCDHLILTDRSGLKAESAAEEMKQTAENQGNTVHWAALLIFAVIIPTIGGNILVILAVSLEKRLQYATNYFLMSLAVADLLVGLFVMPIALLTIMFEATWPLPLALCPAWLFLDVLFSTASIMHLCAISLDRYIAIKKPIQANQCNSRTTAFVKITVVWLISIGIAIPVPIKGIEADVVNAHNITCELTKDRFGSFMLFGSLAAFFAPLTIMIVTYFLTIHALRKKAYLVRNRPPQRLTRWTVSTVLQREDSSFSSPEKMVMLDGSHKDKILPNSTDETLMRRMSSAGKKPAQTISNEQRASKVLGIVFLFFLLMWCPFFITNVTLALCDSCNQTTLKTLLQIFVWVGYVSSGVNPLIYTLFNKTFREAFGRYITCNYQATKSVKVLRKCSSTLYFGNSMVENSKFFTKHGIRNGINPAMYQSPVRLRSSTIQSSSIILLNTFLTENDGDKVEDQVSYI

[3] = molecular target: 5-HT2A (Homo sapiens, UniProt P28223); settings: Hoyer, 1989; Hoyer et al., 1994; cited from earlier work
Sequence of 5-HT2A (P28223 whole entry, species assumed): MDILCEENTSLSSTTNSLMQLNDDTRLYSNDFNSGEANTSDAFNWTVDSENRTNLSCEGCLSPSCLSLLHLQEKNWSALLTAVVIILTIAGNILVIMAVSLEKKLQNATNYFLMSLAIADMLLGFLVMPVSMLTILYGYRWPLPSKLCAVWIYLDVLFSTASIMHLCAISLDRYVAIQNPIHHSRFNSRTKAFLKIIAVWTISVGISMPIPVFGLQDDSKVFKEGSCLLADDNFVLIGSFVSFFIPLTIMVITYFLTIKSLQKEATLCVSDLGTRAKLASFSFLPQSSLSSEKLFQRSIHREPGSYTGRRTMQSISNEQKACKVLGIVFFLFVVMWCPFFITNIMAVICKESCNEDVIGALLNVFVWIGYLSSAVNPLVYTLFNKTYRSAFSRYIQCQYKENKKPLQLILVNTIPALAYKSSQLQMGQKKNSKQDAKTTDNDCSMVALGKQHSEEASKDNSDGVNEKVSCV

[4] = molecular target: 5-HT1B (Rattus norvegicus, UniProt P28564); settings: Hoyer, 1989; Hoyer et al., 1994; cited from earlier work
Sequence of 5-HT1B (P28564 whole entry): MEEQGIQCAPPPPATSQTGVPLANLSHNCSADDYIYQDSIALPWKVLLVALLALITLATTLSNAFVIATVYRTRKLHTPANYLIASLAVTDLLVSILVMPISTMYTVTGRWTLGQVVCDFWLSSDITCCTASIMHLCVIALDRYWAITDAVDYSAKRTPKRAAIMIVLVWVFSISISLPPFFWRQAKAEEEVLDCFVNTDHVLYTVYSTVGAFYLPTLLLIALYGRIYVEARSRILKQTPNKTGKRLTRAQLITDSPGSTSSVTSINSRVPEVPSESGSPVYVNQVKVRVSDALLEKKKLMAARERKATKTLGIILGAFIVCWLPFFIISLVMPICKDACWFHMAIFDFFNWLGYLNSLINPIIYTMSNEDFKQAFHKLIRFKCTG

[5] = molecular target: cloned human 5-HT7 receptor (Homo sapiens, UniProt P34969); settings: cited from earlier work
Sequence of cloned human 5-HT7 receptor (P34969 1-445 isoform P34969-2): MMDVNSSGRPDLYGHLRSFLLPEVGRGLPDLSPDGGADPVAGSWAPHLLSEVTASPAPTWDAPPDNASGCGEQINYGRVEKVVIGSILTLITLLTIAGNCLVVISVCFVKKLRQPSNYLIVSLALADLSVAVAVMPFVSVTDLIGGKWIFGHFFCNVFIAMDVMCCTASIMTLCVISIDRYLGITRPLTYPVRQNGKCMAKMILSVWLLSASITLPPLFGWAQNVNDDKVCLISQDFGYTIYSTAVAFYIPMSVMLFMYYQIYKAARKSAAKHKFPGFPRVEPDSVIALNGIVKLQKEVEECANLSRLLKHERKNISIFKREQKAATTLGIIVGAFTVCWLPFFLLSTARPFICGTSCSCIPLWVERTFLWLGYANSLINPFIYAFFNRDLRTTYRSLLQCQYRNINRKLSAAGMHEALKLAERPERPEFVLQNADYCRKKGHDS

[6] = molecular target: T3, 5-HT1A (Homo sapiens, UniProt P08908); settings: Hoyer, 1989; cited from earlier work
T3 sequence (P08908 1-422): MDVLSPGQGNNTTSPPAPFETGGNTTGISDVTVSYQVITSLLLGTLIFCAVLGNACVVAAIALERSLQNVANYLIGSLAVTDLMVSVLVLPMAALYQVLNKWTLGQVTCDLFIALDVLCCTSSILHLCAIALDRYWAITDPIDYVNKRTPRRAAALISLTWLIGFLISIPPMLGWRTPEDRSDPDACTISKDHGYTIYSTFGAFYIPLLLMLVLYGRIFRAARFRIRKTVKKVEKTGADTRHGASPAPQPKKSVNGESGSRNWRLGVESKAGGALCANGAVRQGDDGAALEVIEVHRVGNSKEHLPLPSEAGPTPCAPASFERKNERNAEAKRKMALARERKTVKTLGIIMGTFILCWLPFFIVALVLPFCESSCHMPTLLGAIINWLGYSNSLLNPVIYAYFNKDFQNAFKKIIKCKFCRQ

[7] = molecular target: 5-HT1E (Homo sapiens, UniProt P28566); settings: Adham et al., 1993; cited from earlier work
Sequence of 5-HT1E (P28566 whole entry): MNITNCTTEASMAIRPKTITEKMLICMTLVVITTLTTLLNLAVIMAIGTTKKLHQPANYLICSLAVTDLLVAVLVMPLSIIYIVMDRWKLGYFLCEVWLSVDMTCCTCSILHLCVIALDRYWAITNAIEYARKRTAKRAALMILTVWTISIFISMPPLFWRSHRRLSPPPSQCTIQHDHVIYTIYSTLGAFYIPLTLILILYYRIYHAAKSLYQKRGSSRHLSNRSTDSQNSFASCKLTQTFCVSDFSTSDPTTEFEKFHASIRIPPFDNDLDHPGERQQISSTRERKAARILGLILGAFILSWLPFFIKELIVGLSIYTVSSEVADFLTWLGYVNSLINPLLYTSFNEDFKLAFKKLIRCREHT

[8] = molecular target: cloned rat 5-HT2B receptor (Rattus norvegicus, UniProt P30994); settings: cited from earlier work; for pKB, 5-HT2B: Wainscott et al., 1993; for pK1: cloned rat 5-HT2B receptor, reference 1 (Wainscott et al., 1993)
Sequence of cloned rat 5-HT2B receptor (P30994 whole entry): as the sequence (P30994 whole entry) above

[9] = molecular target: T4, 5-HT2C (Homo sapiens, UniProt P28335); settings: Hoyer, 1989; Hoyer et al., 1994; cited from earlier work
T4 sequence (P28335 33-458): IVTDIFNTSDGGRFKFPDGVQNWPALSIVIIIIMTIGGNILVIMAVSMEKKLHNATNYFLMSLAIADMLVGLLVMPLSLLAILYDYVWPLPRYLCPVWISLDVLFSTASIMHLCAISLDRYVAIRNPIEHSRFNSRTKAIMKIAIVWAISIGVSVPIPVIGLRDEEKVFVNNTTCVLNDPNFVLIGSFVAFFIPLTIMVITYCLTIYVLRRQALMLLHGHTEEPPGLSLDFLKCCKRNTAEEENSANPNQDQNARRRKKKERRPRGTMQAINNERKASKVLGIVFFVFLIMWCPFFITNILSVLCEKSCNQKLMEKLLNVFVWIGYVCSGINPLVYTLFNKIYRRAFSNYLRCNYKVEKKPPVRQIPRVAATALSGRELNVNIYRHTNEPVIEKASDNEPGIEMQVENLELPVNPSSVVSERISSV

[10] = test system: rat urinary bladder strips; assay: Isolated rat urinary bladder strips: agonist-evoked increase of electrically evoked, nerve-mediated contractions; assay type: cell-based
Source text: 5-HT receptors in the rat urinary bladder which, when activated by serotonin agonists, cause increases in the magnitude of nerve-mediated contractions, were identified and characterized pharmacologically using isolated strips of rat bladder.
Urinary bladders were isolated from female CD rats (Charles Rivers, 250-300 g). The bladder base (lower third) was removed and the detrusor region was opened into a flat sheet by cutting from the basal opening to the apex. This was cut into quadrants, each of which was attached on its lateral edges by two tissue clips and suspended in a 5 ml tissue bath containing Krebs' solution (pH 7.4 37° C.) of the following composition (mM): NaCl (118), KCl (4.9), NaHCO3 (25), MgCl2 (1.2), NaHPO4 (1.0), CaCl2 (2.5), glucose (11) and aerated continuously with 95% O2/5% CO2. Except in initial experiments, prazosin (0.1 μM), idazoxan (0.3 μM), and indomethacin (10 μM) were included routinely in the buffer to block α1- and α2-adrenoceptors and to prevent the formation of prostaglandins, respectively. After allowing 30 min for equilibration, bladder strips were placed under 1.0 g resting tension, readjusted 6 times over the next 30 min. For most experiments contractile responses were evoked by transmural electrical impulses delivered by Grass S-88 (Grass Instruments, City, Mass.) stimulators (single pulses, 0.1 Hz, 1 ms pulse width, 90 V) through a pair of stainless steel electrodes. Contractions were measured using isometric force transducers (Radnotti Instruments, Monrovia, Calif.) and recorded using MacLab software (AD Instruments, Milford, Mass.).
Bladder strips, in Krebs' solution containing antagonist or vehicle, were stimulated at supramaximal voltage until contractions of consistent magnitude were obtained (ca. 30 min). During this period the Krebs' solution was exchanged at 15 min intervals. Cumulative concentration-effect curves were then constructed by administering 5-carboxamidotryptamine (5-CT) or other agonists in 0.5 log M increments. Responses are expressed as a percent of control, and represent agonist-evoked increases in the magnitude of the electrically evoked contractions relative to that in the absence of agonist (“control”, taken as 100%). […] Therefore, only a single agonist concentration-effect curve was constructed in each tissue.
Concentration-effect curves were fitted (Kaleidagraph, Synergy Software, PCS Inc., Reading PA) to 1-site or 2-site models of agonism as represented by the following equations:
(1-site): Effect=Emax[A]^n/[A]^n+EC50^n;
(2-site): Effect=(Emax^a[A]/[A]+EC50^a+(Emax^b[A]/[A]+EC50^b),
where Emax represents the maximum effect of the agonist, [A] is the agonist molar concentration, EC50 is the concentration of agonist eliciting half its maximum effect, n is the slope factor, and the italicized superscripts (a and b) denote values for the first and second phase of the biphasic curve. Antagonist pKB values were determined using the formula described by Furchgott (1972): pKB=log (agonist concentration ratio −1/antagonist concentration [M]. In some instances, pKB values were determined according to the method of Arunlakshana and Schild (1959), in which the slope of the Schild plot was constrained to unity. Concentration ratios for Schild analyses were calculated from mean EC50 values for the agonist in the absence and presence of the antagonist in experiments from n different animals.

[11] = test system: rat bladder strips (postjunctional response to α,β-methylene-ATP); assay type: cell-based; settings: 0.1 and 10 μM; 5 minute incubation; tetrodotoxin 0.1 μM; α,β-methylene-ATP 3 μM
[12] = molecular target: 5-HT6 (Rattus norvegicus, UniProt P31388); settings: Hoyer et al., 1994; cited from earlier work
Sequence of 5-HT6 (P31388 whole entry): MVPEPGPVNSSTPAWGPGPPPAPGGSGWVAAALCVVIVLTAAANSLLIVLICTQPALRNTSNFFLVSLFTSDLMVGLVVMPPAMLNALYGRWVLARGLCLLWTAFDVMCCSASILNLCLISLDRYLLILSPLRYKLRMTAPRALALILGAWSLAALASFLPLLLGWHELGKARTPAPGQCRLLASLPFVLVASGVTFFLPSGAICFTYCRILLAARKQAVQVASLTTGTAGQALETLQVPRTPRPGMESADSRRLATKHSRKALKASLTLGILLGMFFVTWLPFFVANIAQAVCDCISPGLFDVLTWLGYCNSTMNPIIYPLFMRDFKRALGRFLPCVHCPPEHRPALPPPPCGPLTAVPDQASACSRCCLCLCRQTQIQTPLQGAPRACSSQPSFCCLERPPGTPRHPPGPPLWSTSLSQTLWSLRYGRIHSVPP

[13] = molecular target: T5, 5-HT1F (Homo sapiens, UniProt P30939); settings: Adham et al., 1993; cited from earlier work
T5 sequence (P30939 1-366): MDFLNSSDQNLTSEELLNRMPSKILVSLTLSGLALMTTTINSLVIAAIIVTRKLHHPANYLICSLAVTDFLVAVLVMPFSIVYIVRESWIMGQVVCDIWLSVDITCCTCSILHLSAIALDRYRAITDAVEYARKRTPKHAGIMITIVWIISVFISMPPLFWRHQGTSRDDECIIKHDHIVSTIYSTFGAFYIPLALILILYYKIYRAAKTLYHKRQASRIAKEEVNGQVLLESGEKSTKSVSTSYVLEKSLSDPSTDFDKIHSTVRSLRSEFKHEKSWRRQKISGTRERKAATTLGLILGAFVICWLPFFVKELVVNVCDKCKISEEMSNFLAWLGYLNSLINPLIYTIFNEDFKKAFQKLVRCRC

[14] = test system: 5-HT5A; settings: Hoyer et al., 1994; cited from earlier work
[15] = test system: 5-HT1D; settings: Hoyer, 1989; Hoyer et al., 1994; cited from earlier work
[16] = molecular target: T6, human 5-HT7 receptor (Homo sapiens, UniProt P34969); assay: Radioligand binding at cloned 5-HT7 receptor, this study ([3H]serotonin competition); settings: reference: this study, read-out: pK1 (converted)
T6 construct: host or cells: LM(tk-) mouse fibroblasts, clone L-5HT-4B
T6 sequence (P34969 1-445 isoform P34969-2): as the sequence (P34969 1-445 isoform P34969-2) above
Method: The binding of a test compound to a receptor of interest was generally evaluated by competitive binding assays using membrane preparations derived from cells which expressed the receptor. First, conditions were determined which allowed measurement of the specific binding of a compound known to bind to the receptor. Then, the binding of the known compound to the receptor in membrane preparations was evaluated in the presence of several different concentrations of the test compound.
Human Serotonin Receptors. 5-HT1Dα, 5-HT1Dβ, 5-HT1E, 5-HT1F, and 5-HT7 Receptors: The cell lysates of LM(tk-) clonal cell line stably transfected with the genes encoding each of these 5-HT receptor-subtypes were prepared as described above. The cell line for the 5-HT1Dα receptor, designated as Ltk-8-30-84, was deposited on Apr. 17, 1990, and accorded ATCC Accession No. CRL 10421. The cell for the 5-HT1Dβ receptor, designated as Ltk-11, was deposited on Apr. 17, 1990, and accorded ATCC Accession No. CRL 10422. The cell line for the […] receptor, designated 5-HT1E-7, was deposited on Nov. 6, 1991, and accorded ATCC Accession No. CRL 10913. The cell line for the 5-HT1F receptor, designated L-5-HT1F, was deposited on Dec. 27, 1991, and accorded ATCC Accession No. ATCC 10957. […] Nonspecific binding was determined in the presence of 10 μM serotonin. […]

[17] = bladder pKB versus published values
[18] = bladder pKB versus published value

| SMILES | pKB, 5-HT2A [3] | pKB, 5-HT1B [4] | pKB, 5-HT1A [6] | pKB, 5-HT1E [7] | pKB, 5-HT2B [8] | pK1 [8] | pKB, 5-HT2C [9] | pKB, 5-HT1F [13] | pKB, 5-HT5A [14] | pKB, 5-HT1D [15] | also measured |
| --- | --- | --- | --- | --- | --- | --- | --- | --- | --- | --- | --- |
| c1ccc2c(N3CCNCC3)cccc2c1 [1-NP, 1-(1-naphthyl)piperazine] | 7.2 | 6.6 | 7.2 | 6.7 | 8.3 | 8.3-8.7 | 8.2 | – | – | – | effect on the high potency (first) phase of the curve ([1]; 0.1 μM): no effect; rightward shift of the first phase of the response to 5-CT ([1]; 1.0 μM): 6.8 ±0.54 fold; Kb ([1]; pKB, inhibition of the first phase of the concentration-effect curve to 5-CT in the rat bladder, antagonists tested in the presence of 0.1 μM 1-NP): 0.158 µM and 0.251 µM; Kb [2]: 0.00316 µM; shift of the low potency (second) phase of the concentration-effect curve ([2]; 0.1 μM): 100 fold; second-phase affinity greater than affinity for 5-HT1A, 5-HT1B, 5-HT1E, 5-HT2A and 5-HT7 subtypes [2, 17]: at least 10 fold; slope of Schild analysis ([2]; second phase, 0.01 to 1.0 μM): unit slope; pKB, 5-HT7 ([5]; Bard et al., 1993): 7.1; pK1 ([5]; cloned human 5-HT7 receptor, references 1 and 4): 7.1 |
| NCCc1c[nH]c2ccc(C(N)=O)cc12 [5-CT, 5-carboxamidotryptamine] | – | – | – | – | – | – | – | – | – | – | EC50 [1]: 0.00158 µM; EC50 [2]: 0.158 µM; difference in EC50 values between first and second phase [10]: 100 fold; effect on the magnitude of electrically evoked contractions ([10]; agonist alone, electrically stimulated rat bladder strips): mimicked; effect on the magnitude of a subsequent contraction to α,β-methylene-ATP [11]: failed to significantly modify |
| CN1C[C@@H](NS(=O)(=O)N(C)C)C[C@@H]2c3cccc4c3c(cn4C)C[C@H]21 [mesulergine] | 9.1 | 4.9 | 6.2 | – | – | – | – | < 5 | – | – | pKB, 5-HT6 [12]: 5.8 |
| CSc1ccc2c(c1)C(N1CCN(C)CC1)Cc1ccccc1S2 (stereo not drawn) [methiothepin] | – | 7.3 | – | 6.7 | – | – | – | 6.2 | 7.0 | 7.3 | – |
| COC(=O)[C@H]1[C@H]2C[C@H]3c4[nH]c5ccccc5c4CCN3C[C@H]2CC[C@@H]1O [rauwolscine] | – | – | – | 5.5 | 7.5 | 7.5-7.6 | – | – | – | – | first-phase affinity lower than affinity for the 5-HT2B receptor subtype [1, 18]: more than 10 fold; second-phase affinity greater than affinity for 5-HT1B, 5-HT1E, 5-HT2A and 5-HT2C subtypes [2, 17]: at least 10 fold; Kb ([2]; inhibition of the second phase of the concentration-effect curve to 5-CT in the rat bladder, read-out: pKB (converted)): 0.0158 µM; Ki [16]: 2.51 µM |
| O=C(CCCN1CCC2(CC1)C(=O)NCN2c1ccccc1)c1ccc(F)cc1 [spiperone] | – | 4.4 | – | – | – | – | 5.9 | – | 5.6 | 4.8 | first-phase affinity greater than that for the 5-HT2C receptor subtype [1, 18]: ~30 fold; first-phase affinity lower than that for the 5-HT2A receptor subtype [1, 18]: ~30 fold; first-phase affinity greater than that for 5-HT1B, 5-HT1D, 5-HT5A and 5-HT2B receptor subtype [1, 17]: at least 100 fold |
